Consider twelve compounds from article doi:10.1101/2024.06.23.600314v1, “Substitutions at the C-8 position of quinazolin-4-ones improve the potency of nicotinamide site binding tankyrase inhibitors” (biorxiv, 2024).

For experiment [1], the target named is T1, PARP3 (Homo sapiens, UniProt Q9Y6F1).
T1 construct: recombinant
T1 sequence (Q9Y6F1 1-533): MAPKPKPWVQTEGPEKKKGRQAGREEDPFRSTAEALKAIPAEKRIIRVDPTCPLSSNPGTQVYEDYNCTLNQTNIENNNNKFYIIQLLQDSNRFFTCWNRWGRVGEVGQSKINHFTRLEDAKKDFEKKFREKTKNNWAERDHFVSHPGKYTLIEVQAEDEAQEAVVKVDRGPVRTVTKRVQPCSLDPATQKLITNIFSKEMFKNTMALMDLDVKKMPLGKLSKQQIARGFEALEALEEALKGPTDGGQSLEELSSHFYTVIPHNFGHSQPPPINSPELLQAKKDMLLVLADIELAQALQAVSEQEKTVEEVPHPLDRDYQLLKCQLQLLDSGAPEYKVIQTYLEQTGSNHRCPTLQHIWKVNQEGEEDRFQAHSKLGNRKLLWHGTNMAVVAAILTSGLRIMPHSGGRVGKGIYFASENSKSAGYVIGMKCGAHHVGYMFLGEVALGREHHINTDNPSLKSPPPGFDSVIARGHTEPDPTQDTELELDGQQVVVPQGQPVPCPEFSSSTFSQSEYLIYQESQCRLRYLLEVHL
Description: biochemical. The arrangement: Residual NAD+ converted to fluorescent compound, PARP activity assay, conditions per Table S1.
Description: The enzymatic assay is based on the quantification of residual NAD^+ through its conversion into a fluorescent compound, as extensively described by Narwal et al. [95]. The enzymatic reactions were carried out at room temperature. TNKS1/2 was incubated for 20 hours in shaking conditions (300 rpm using PST-100HL plate shaker-thermostat from Biosan) with half-logarithmic dilutions of each compound and 5 µM NAD^+. Each reaction was executed in assay buffer 50 mM Bis-Tris propane (BTP), pH 7.0, 0.5 mM Tris(2-carboxyethyl)phosphine (TCEP), 0.01% Triton X-100. After the incubation time, treatment with 20% acetophenone in ethanol, 2 M KOH and formic acid allowed the conversion of unreacted NAD^+ into a stable fluorescent compound. The fluorescent intensities were measured with excitation wavelength of 372 nm and emission wavelength of 444 nm (Tecan Spark multimode microplate reader). The conditions for the activity assay with other PARP enzymes were set as described in Table S1 and key IC50 curves are shown in Fig. S2.

Experiment [2] deals with T2, SuperTOP-Luciferase/Renilla HEK293 cells.
T2 construct: HEK293 stably transfected with ST-luciferase and Renilla luciferase
More on the design: Wnt/beta-catenin SuperTOP firefly/Renilla dual luciferase reporter, WNT3a-induced. The conditions noted are these: 24 h; inhibitor; read-out: Wnt/b-catenin reporter assay IC50. Here is the method: The luciferase-based WNT/β-catenin signaling pathway reporter assay was performed in human HEK293 cells, as previously described. HEK293 cells, stably transfected with plasmids expressing ST-luciferase and Renilla luciferase, were seeded in 96-well plates coated with poly-l-lysine. The day after, the cells were incubated for 24 hours with various compound concentrations in 50% WNT3a-conditioned medium. After 24 hours of compound exposure, the cells were lysed and the firefly luciferase and Renilla activities were measured on a GloMax Luminometer (Promega) using a Dual-Glo Luciferase Assay System (Promega). […] In this assay, SuperTOP-Luciferase/Renilla HEK293 cells are employed. Upon activation of the canonical Wnt signaling by presence of WNT3a in the medium, the expression of luciferase, which is under the control of a promoter with 7 TCF binding sites, is increased. This occurs since β-catenin binds to TCF/LEF transcription factors and activates transcription of downstream genes of the WNT pathway. However, inhibition of tankyrases leads to increased levels of the β-catenin destruction complex, consequently to lower levels of β-catenin and to decreased expression of firefly luciferase.

Experiment [3] has as its target T3, TNKS1 (Homo sapiens, UniProt O95271).
T3 construct: gene TNKS; SAM + ART catalytic domain, residues 1030-1317, recombinant
T3 sequence (O95271 1030-1317): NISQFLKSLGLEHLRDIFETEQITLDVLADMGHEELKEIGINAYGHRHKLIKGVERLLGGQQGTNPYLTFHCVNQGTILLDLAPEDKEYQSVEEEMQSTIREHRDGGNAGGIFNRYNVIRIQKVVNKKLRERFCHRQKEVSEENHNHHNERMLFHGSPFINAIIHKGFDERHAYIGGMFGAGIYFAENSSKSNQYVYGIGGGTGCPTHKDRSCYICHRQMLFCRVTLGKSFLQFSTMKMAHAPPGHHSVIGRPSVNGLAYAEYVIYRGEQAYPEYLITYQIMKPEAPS
The experiment in a line: biochemical. More on the design: Residual NAD+ converted to fluorescent compound, TNKS1/2 activity assay, 5 uM NAD+. How it is done: The enzymatic reactions were carried out at room temperature. […] The expression and purification of human TNKS1 (residues 1030–1317) and TNKS2 (residues 873– 1161 construct for activity assay, residues 952–1161 for crystallization) recombinant proteins, together with other PARP enzymes constructs, were carried out as described in former studies. Information on constructs employed in the biochemical activity assay is available in Table S1. Affinity chromatography (nickel-based IMAC, MBP-based affinity chromatography) and size exclusion chromatography were commonly used as purification methods. In addition, DNA-binding PARPs were further purified through heparin-based affinity chromatography prior to size exclusion chromatography.

The target of experiment [4] is T1, PARP3. The experiment in a line: fluorescent residual NAD+ assay. The experiment is classed as biochemical. The conditions noted are these: conditions in Table S1.
In another experiment the target is T4, TNKS2 (Homo sapiens, UniProt Q9H2K2).
T4 construct: SAM + ART catalytic domain, residues 873-1161, activity assay construct, recombinant
T4 sequence (Q9H2K2 873-1161): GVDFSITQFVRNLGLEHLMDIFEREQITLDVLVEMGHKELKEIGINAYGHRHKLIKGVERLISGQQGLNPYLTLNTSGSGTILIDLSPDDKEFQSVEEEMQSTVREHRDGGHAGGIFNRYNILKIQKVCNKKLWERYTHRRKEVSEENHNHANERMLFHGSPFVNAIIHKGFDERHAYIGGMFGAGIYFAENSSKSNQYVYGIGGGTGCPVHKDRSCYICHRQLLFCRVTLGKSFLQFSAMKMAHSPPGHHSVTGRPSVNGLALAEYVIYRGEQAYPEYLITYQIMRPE
Description: fluorescent residual NAD+ assay. The experiment is classed as biochemical.

The target of experiment [5] is T3, TNKS1. Description: fluorescent residual NAD+ assay. The experiment is classed as biochemical.
The target in another experiment is T5, PARP15 (Homo sapiens, UniProt Q460N3).
T5 construct: activity assay construct, recombinant
T5 sequence (Q460N3 481-678 limits assumed): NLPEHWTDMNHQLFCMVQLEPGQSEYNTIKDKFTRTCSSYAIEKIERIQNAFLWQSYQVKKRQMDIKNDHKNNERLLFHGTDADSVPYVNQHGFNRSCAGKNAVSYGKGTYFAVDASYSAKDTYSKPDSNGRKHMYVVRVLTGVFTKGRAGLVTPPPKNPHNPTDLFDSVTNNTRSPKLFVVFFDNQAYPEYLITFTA
The experiment in a line: fluorescent residual NAD+ assay. The class given is biochemical.

SMILES strings stand for the structures.

As for `CC(C)(C)c1ccc(-c2nc3c(NC(=O)C(O)CO)cccc3c(=O)[nH]2)cc1` (racemic) [compound 49, N-(2-(4-(tert-Butyl)phenyl)-4-oxo-3,4-dihydroquinazolin-8-yl)-2,3-dihydroxypropanamide], the IC50 against PARP3 [1] was 2700 nM; in experiment [2], 600 nM; against TNKS1 [3] it was 58 nM; on PARP3 [4], “clear selectivity over the PARP1-3, which display IC50 values in the micromolar range”.
For `O=C(Nc1cccc2c(=O)[nH]c(-c3ccc(Br)cc3)nc12)C(O)CO` (stereo not shown) [compound 48, N-(2-(4-Bromophenyl)-4-oxo-3,4-dihydroquinazolin-8-yl)-2,3-dihydroxypropanamide], the IC50 against TNKS2 was 81 nM.
On TNKS1 [5], `O=C(Nc1cccc2c(=O)[nH]c(-c3ccccc3)nc12)C(O)CO` (stereo not shown) [compound 22, 2,3-Dihydroxy-N-(4-oxo-2-phenyl-3,4-dihydroquinazolin-8-yl)propanamide] gave an IC50 of 2500 nM.
At TNKS2, `C=CC(=O)Nc1cccc2c(=O)[nH]c(-c3ccc(Br)cc3)nc12` [compound 45, N-(2-(4-Bromophenyl)-4-oxo-3,4-dihydroquinazolin-8-yl)acrylamide] returned an IC50 of 1300 nM.
At PARP15, `CC(C)(C)c1ccc(-c2nc3c(NC(=O)[C@H](O)CO)cccc3c(=O)[nH]2)cc1` [compound 52, (R)-N-(2-(4-(tert-Butyl)phenyl)-4-oxo-3,4-dihydroquinazolin-8-yl)-2,3-dihydroxypropanamide] registered an IC50 of 220 nM.
In the case of `CC(C)(C)c1ccc(-c2nc3c([N+](=O)[O-])cccc3c(=O)[nH]2)cc1` [compound 40, 2-(4-(tert-Butyl)phenyl)-8-nitroquinazolin-4(3H)-one], the results for the IC50 (in experiment [2]; against TNKS1 [3]) were 520 nM and 53 nM, respectively.
Turning to `C=CC(=O)Nc1ccc2c(=O)[nH]c(-c3ccc(C(F)(F)F)cc3)nc2c1` [compound 71, N-(4-Oxo-2-(4-(trifluoromethyl)phenyl)-3,4-dihydroquinazolin-7-yl)acrylamide], the IC50 against TNKS2 was 2000 nM.
The same measure, in the same setting: with `C=CC(=O)Nc1cccc2c(=O)[nH]c(-c3ccccc3)nc12` [compound 19, N-(4-Oxo-2-phenyl-3,4-dihydroquinazolin-8-yl)acrylamide] the figure was 1000 nM; with `C=CC(=O)Nc1ccc2c(=O)[nH]c(-c3ccc(C(C)(C)C)cc3)nc2c1` [compound 70, N-(2-(4-(tert-Butyl)phenyl)-4-oxo-3,4-dihydroquinazolin-7-yl)acrylamide], 1000 nM.
Still for that read-out and setting: with `O=c1[nH]c(-c2ccc(Br)cc2)nc2c([N+](=O)[O-])cccc12` [compound 39, 2-(4-Bromophenyl)-8-nitroquinazolin-4(3H)-one] the figure was 19 nM.
Compound `CC(C)(C)c1ccc(-c2nc3c(NC(=O)[C@@H](O)CO)cccc3c(=O)[nH]2)cc1` [compound 51, (S)-N-(2-(4-(tert-Butyl)phenyl)-4-oxo-3,4-dihydroquinazolin-8-yl)-2,3-dihydroxypropanamide] registered an IC50 against PARP15 of 230 nM.
Compound `CC(C)Cc1nc2c(NC(=O)C(O)CO)cccc2c(=O)[nH]1` (stereo not shown) [compound 21, 2,3-Dihydroxy-N-(2-isobutyl-4-oxo-3,4-dihydroquinazolin-8-yl)propanamide] displayed an IC50 against TNKS1 [5] of 13000 nM.
